Experimental data taken from paper PMC8231969, “Characterization of Two NMN Deamidase Mutants as Possible Probes for an NMN Biosensor” (International Journal of Molecular Sciences, 2021).
Like-named read-outs stand apart in the source and are kept apart here.

Legend:
K61Q PncC [1] = target: T1, K61Q PncC (Escherichia coli, UniProt P0A6G3, K61Q); experiment: biochemical; format: binding, E. coli
T1 construct: made in house; host or cells: E. coli BL21(DE3)

WT PncC (NMN deamidase) = system: T2, WT PncC (NMN deamidase); experiment: Fluorescence-based thermal shift binding assay, wild-type PncC; design: species or system E. coli; conditions: 1 mM NMN
T2 construct: made in house; host or cells: E. coli BL21(DE3)
Experimental: (§1) Protein melting temperature (Tm) was determined by fluorescence-based thermal shift assay using fluoroprobe SYPRO Orange dye (Invitrogen, Waltham, MA, USA). The assay was performed in a RotorGene 3000 real-time PCR (Corbett, Biocompare, San Francisco, CA, USA). The assay mixture contained 50 mM Hepes/NaOH, pH 7.5, 300 mM NaCl, 1 mM TCEP, 1 μM protein, Sypro orange at 10-fold dilution from a 5000-fold stock, and the various ligands at the tested concentrations, in a final volume of 25 μL. The mixtures were pre-heated at 40 °C for 5 s, then heated to 50 °C in 1 s, and finally heated from 50 to 99 °C with a heating-up rate of 0.5 °C every 5 s. The fluorescence intensity was measured with Ex/Em: 470/585 nm. The melting temperature was determined by taking the maximum point of the slope-derivative peak. Kd values were determined by plotting the percentage of unfolded proteins as a function of nucleotide concentration at a fixed temperature, after normalization of the unfolding curves. Fitting of the data was performed using the equations reported in [34]. Three independent experiments were carried out and values were reported as the means ± standard deviation.

S29A PncC [2] = target: T3, S29A PncC (Escherichia coli, UniProt P0A6G3, S29A); format: binding, E. coli
T3 construct: made in house; host or cells: E. coli BL21(DE3)
T3 sequence (P0A6G3 whole entry S29A): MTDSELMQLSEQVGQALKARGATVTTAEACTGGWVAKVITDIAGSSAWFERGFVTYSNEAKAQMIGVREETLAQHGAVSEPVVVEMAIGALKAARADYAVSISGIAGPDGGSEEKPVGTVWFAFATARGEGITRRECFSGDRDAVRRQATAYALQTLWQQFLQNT
Description: (§2) Experimental data were processed using the OriginPro 8.0 (OriginLab Corporation, Northampton, MA, USA). A non-linear curve analysis (Hill1 plot) was used for plotting the F0/F values in function of the metabolite concentration, to obtain the Kd value.

Y56A PncC = system: T4, Y56A PncC; experiment: Fluorescence-based thermal shift binding assay, Y56A PncC; design: species or system E. coli
T4 construct: made in house; host or cells: E. coli BL21(DE3)
Experimental: as §1

S29A PncC [3] = target: T3, S29A PncC; experiment: biochemical; format: binding, E. coli
[4] = system: glutamine binding protein (GlnBP); conditions: GlnBP 3 µM, 96 µM nucleotide
Experimental: Steady-state measurements were performed using an ISS_K2 fluorometer (ISS, Urbana-Champaign, IL, USA), equipped with a one-cell temperature-controlled sample holder. […] Excitation and emission slit widths were fixed at 0.5 and 1.0 nm, respectively. […] The nucleotides were added to reach the indicated final concentration (from 0.18 to 96 µM) with an incubation interval of 10 min. Triplicate readings were done for each experimental point. Experiments were repeated three times (for NMN and NaMN) or twice (for all the other metabolites). Controls experiments were performed using the E. coli Glutamine Binding Protein (GlnBP, 3µM), with increasing concentration of NMN or NaMN, at the same conditions.
Percentages of reduction of fluorescence intensities compared to buffer, were calculated as follow: (normalized fluorescence in presence of analyte at a given [µM]/normalized fluorescence in presence of corresponding volume of buffer) × 100.

K61Q PncC [5] = target: T1, K61Q PncC; format: binding, E. coli
Experimental: as §2
Percentage of the K61Q protein that would exist in complex with NMN in a cellular setting was calculated based on the Kd value, by using the equation: %=100/1+Kd/[NMN]

R142A PncC = system: T5, R142A PncC; experiment: Fluorescence-based thermal shift binding assay, R142A PncC; design: species or system E. coli
T5 construct: made in house; host or cells: E. coli BL21(DE3)
Experimental: as §1

[6] = Thermal stability (melting temperature) of PncC proteins without ligand; format: physicochemical; conditions: absence of NMN
Experimental: as §1

Molecule	S29A PncC fluorescence quenching (%) vs buffer (S29A PncC [2]; nucleotide 0.185 µM) [%]	S29A PncC fluorescence quenching (%) vs buffer (S29A PncC [2]; nucleotide 0.375 µM) [%]	S29A PncC fluorescence quenching (%) vs buffer (S29A PncC [2]; nucleotide 0.75 µM) [%]	S29A PncC fluorescence quenching (%) vs buffer (S29A PncC [2]; nucleotide 3 µM) [%]	S29A PncC fluorescence quenching (%) vs buffer (S29A PncC [2]; nucleotide 6 µM) [%]	S29A PncC fluorescence quenching (%) vs buffer (S29A PncC [2]; nucleotide 12 µM) [%]	S29A PncC fluorescence quenching (%) vs buffer (S29A PncC [2]; nucleotide 24 µM) [%]	S29A PncC fluorescence quenching (%) vs buffer (S29A PncC [2]; nucleotide 48 µM) [%]	quenching of fluorescence of GlnBP [4] [%]	K61Q PncC fluorescence quenching (%) vs buffer (K61Q PncC [5]; nucleotide 0.185 µM) [%]	K61Q PncC fluorescence quenching (%) vs buffer (K61Q PncC [5]; nucleotide 0.375 µM) [%]	K61Q PncC fluorescence quenching (%) vs buffer (K61Q PncC [5]; nucleotide 0.75 µM) [%]	K61Q PncC fluorescence quenching (%) vs buffer (K61Q PncC [5]; nucleotide 1.5 µM) [%]	K61Q PncC fluorescence quenching (%) vs buffer (K61Q PncC [5]; nucleotide 3 µM) [%]	K61Q PncC fluorescence quenching (%) vs buffer (K61Q PncC [5]; nucleotide 6 µM) [%]	K61Q PncC fluorescence quenching (%) vs buffer (K61Q PncC [5]; nucleotide 12 µM) [%]	K61Q PncC fluorescence quenching (%) vs buffer (K61Q PncC [5]; nucleotide 24 µM) [%]	K61Q PncC fluorescence quenching (%) vs buffer (K61Q PncC [5]; nucleotide 48 µM) [%]	Tm (melting temperature of the protein) [6] [°C]	further results
NC(=O)c1ccc[n+]([C@@H]2O[C@H](COP(=O)([O-])O)[C@@H](O)[C@H]2O)c1 [NMN, nicotinamide mononucleotide]	0.48	0.58	2.58	17.42	17.55	27.06	37.52	46.79	4.3	1.09	1.84	3.19	4.87	6.26	8.11	12.12	20.07	38.03	–	Tm (+NMN) (K61Q PncC [1]; K61Q PncC, 1 mM NMN): 86.2 °C; ΔTm at 1000 µM (K61Q PncC [1]; read-out: ΔTm): 18.7 °C; Tm (+NMN) (WT PncC (NMN deamidase)): 92.2 °C; ΔTm (WT PncC (NMN deamidase)): 6.1 °C; Hill coefficient (nH) (S29A PncC [2]; S29A PncC, Trp fluorescence): 0.98± 0.1; Tm (+NMN) (Y56A PncC; 1 mM NMN): 83.6 °C; Effect of NMN on Tm (Y56A PncC; 1.0 mM NMN): not affected; Tm (+NMN) (S29A PncC [3]; S29A PncC, 1 mM NMN): 95.5 °C; ΔTm at 1000 µM (S29A PncC [3]; read-out: ΔTm): 10 °C; Hill coefficient (nH) (K61Q PncC [5]; K61Q PncC, Trp fluorescence): 1.3±0.2; Tm (+NMN) (R142A PncC; 1 mM NMN): 52.4 °C; Effect of NMN on Tm (R142A PncC; 1.0 mM NMN): not affected
O=C(O)c1ccc[n+]([C@@H]2O[C@H](COP(=O)([O-])O)[C@@H](O)[C@H]2O)c1 [NaMN, nicotinic acid mononucleotide]	1.79	2.56	6.47	30.74	30.87	40.52	47.93	52.28	4.3	0.71	1.11	2.05	2.12	2.82	2.80	4.14	4.9	7.14	–	Kd (thermal shift) (K61Q PncC [1]; K61Q PncC, at 70 °C): not possible to determine Kd; S29A PncC fluorescence quenching (%) vs buffer (S29A PncC [2]; nucleotide 1.5 µM): 20.83%; apparent Kd (Trp fluorescence) (K61Q PncC [5]; K61Q PncC, at 25 °C): not possible to determine Kd; K61Q PncC fluorescence quenching (%) vs buffer (K61Q PncC [5]; nucleotide 96 µM): 10.68%
WT PncC: wild type NMN deamidase (PncC) from E. coli, recombinant (protein, left off: His tag (from the HisTrap HP purification; vector pCA24N), end not stated, state not stated, wild type NMN deamidase (PncC) from E. coli, recombinant) MTDSELMQLSEQVGQALKARGATVTTAESCTGGWVAKVITDIAGSSAWFERGFVTYSNEAKAQMIGVREETLAQHGAVSEPVVVEMAIGALKAARADYAVSISGIAGPDGGSEEKPVGTVWFAFATARGEGITRRECFSGDRDAVRRQATAYALQTLWQQFLQNT	–	–	–	–	–	–	–	–	–	–	–	–	–	–	–	–	–	–	86.1	–
K61Q PncC: catalytically inactive K61Q mutant of E. coli NMN deamidase PncC (protein, left off: His tag (from the HisTrap HP purification; vector pCA24N), end not stated, state not stated) MTDSELMQLSEQVGQALKARGATVTTAESCTGGWVAKVITDIAGSSAWFERGFVTYSNEAQAQMIGVREETLAQHGAVSEPVVVEMAIGALKAARADYAVSISGIAGPDGGSEEKPVGTVWFAFATARGEGITRRECFSGDRDAVRRQATAYALQTLWQQFLQNT	–	–	–	–	–	–	–	–	–	–	–	–	–	–	–	–	–	–	67.5	–
